Measured values: patent US8293773B2, “1, 2, 3-triazole derivatives as new cannabinoid-1 receptor antagonists” (National Tsing Hua University, priority 2008, dated 2012)
One block for each molecule: values may come before it.

Biological target: T1, human CB1 receptor (Homo sapiens, UniProt P21554)
T1 construct: expressed in transfected cells; membrane-enriched fractions
Assay: competitive radioligand binding assay, displacement of [3H]CP55,940, CB1
Conditions: percent inhibition at 10 μM
Experimental: In addition, the affinity of test compounds of this invention toward CB1 and CB2 receptors was determined by competitive radioligand binding assays in vitro. This method differentiates the binding strength between compounds by their abilities in displacing a receptor-specific radioactive ligand. […] The readings of the radioactivity retained allow further analysis of receptor binding, and assist in predictions of the pharmacological activities of the test compounds.
In the assays, CB1 receptors are from human CB1 stably expressed cell lines, and CB2 receptors are from human CB2 stably expressed cell lines. For purification of membrane-enriched fractions, cells were scraped off from the culture dishes in ice-cold buffer A (50 mM Tris, 5 mM MgCl2, 2.5 mM EDTA, pH 7.4, 10% sucrose) with 1 mM PMSF. After sonication, the membrane-enriched fractions were centrifuged for 15 minutes at 2,000×g at 4° C. The supernatant was centrifuged again for 30 minutes at 43,000×g at 4° C. The final pellet was re-suspended in buffer A and stored at −80° C. The protein concentration of the purified membrane was determined by the Bradford method as described by the manual provided by Bio-Rad Laboratories, Inc., Hercules, Calif.
During the receptor binding experiments, 0.2˜8 μg of membrane fractions were incubated with 0.75 nM [^3H]CP55,940 and a test compound in the incubation buffer of 50 mM Tris-HCl, 5 mM MgCl2, 1 mM EDTA, 0.3% BSA, pH 7.4. The non-specific binding was determined by using 1 μM of CP55,940. The mixture was incubated for 1.5 hours at 30° C. in Multiscreen microplates (Millipore, Billerica, Mass.). At the completion of the incubation, the reaction was terminated by Manifold filtration and washed with ice-cold wash buffer (50 mM Tris, pH 7.4, 0.25% BSA) four times. The radioactivity bound to the filters was measured by Topcount (Perkin Elmer Inc.).

T1 sequence (P21554 whole entry): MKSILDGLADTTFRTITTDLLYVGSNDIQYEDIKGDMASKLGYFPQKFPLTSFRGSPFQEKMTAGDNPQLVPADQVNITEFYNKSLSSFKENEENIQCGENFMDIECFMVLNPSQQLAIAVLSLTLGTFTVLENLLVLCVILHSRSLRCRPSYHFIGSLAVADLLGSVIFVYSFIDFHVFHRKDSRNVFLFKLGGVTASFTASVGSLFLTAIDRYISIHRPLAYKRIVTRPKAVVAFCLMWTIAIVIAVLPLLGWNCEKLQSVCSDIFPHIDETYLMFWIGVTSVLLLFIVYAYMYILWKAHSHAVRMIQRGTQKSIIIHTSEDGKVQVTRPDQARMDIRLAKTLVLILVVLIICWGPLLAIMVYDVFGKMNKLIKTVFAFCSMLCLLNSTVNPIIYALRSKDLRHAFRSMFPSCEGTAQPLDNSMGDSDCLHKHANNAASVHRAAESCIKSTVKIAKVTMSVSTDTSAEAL

inhibition at 10 µM (Table 1): 30.3%
Structure (SMILES): CCCCCCCCNC(=O)NNC(=O)Cn1nnc(-c2ccc(Cl)cc2)c1-c1ccc(Cl)cc1 [Compound 49]

inhibition at 10 µM (Table 1): 27.5%
Structure (SMILES): CCCCCCCNC(=O)NNC(=O)Cn1nnc(-c2ccc(Cl)cc2)c1-c1ccc(Cl)cc1 [Compound 50]

inhibition at 10 µM (Table 1): 18.6%
Structure (SMILES): CCCCCNC(=O)NNC(=O)Cn1nnc(-c2ccc(Cl)cc2)c1-c1ccc(Cl)cc1 [Compound 51]

inhibition at 10 µM (Table 1): 11%
Structure (SMILES): O=C(Cn1nnc(-c2ccccc2)c1-c1ccccc1F)N1CCCCC1 [Compound 52]

inhibition at 10 µM (Table 1): 68.7%
Structure (SMILES): CCCCOC(=O)Cn1nnc(-c2ccc(Br)cc2)c1-c1ccc(Br)cc1 [Compound 53]

inhibition at 10 µM (Table 1): 71.7%
Structure (SMILES): CCCCOC(=O)Cn1nnc(-c2ccc(Cl)cc2Cl)c1-c1ccc(Cl)cc1Cl [Compound 54]

inhibition at 10 µM (Table 1): 45.7%
Structure (SMILES): CCCCCCOC(=O)Cn1nnc(-c2ccc(Cl)cc2)c1-c1ccc(Cl)cc1Cl [Compound 55]

inhibition at 10 µM (Table 1): 47.7%
Structure (SMILES): CCCCCCOC(=O)Cn1nnc(-c2ccc(Cl)cc2Cl)c1-c1ccc(Cl)cc1 [Compound 56]

inhibition at 10 µM (Table 1): 55.7%
Structure (SMILES): CCCCCCOC(=O)Cn1nnc(-c2ccc(Cl)cc2Cl)c1-c1ccc(Cl)cc1Cl [Compound 57]

inhibition at 10 µM (Table 1): 58.3%
Structure (SMILES): CCCCCOC(=O)Cn1nnc(-c2ccc(Cl)cc2Cl)c1-c1ccc(Cl)cc1Cl [Compound 58]

inhibition at 10 µM (Table 1): 55.7%
Structure (SMILES): O=C(Cn1nnc(-c2ccc(Cl)cc2Cl)c1-c1ccc(Cl)cc1Cl)N1CCCCC1 [Compound 60]

inhibition at 10 µM (Table 1): 46.1%
Structure (SMILES): CCCCOC(=O)Cn1nnc(-c2ccc(C(=O)OC)cc2)c1-c1ccc(C(=O)OC)cc1 [Compound 61]

inhibition at 10 µM (Table 1): 18.3%
Structure (SMILES): CCCCOC(=O)Cn1nnc(-c2cccc(Br)c2)c1-c1cccc(Br)c1 [Compound 62]

inhibition at 10 µM (Table 1): 9.9%
Structure (SMILES): CCCCOC(=O)Cn1nnc(-c2cccc(C)c2)c1-c1cccc(C)c1 [Compound 63]

inhibition at 10 µM (Table 1): 26%
Structure (SMILES): O=C(Cn1nnc(-c2ccc(Cl)cc2Cl)c1-c1ccc(Cl)cc1Cl)N1CCOCC1 [Compound 64]

inhibition at 10 µM (Table 2): 11.4%
Structure (SMILES): O=C(c1ccccc1)n1nc(-c2ccccc2)c(-c2ccccc2)n1 [Compound 65]

inhibition at 10 µM (Table 2): 32.1%
Structure (SMILES): CC(C)(C)C(=O)n1nc(-c2ccccc2)c(-c2ccccc2)n1 [Compound 66]

inhibition at 10 µM (Table 2): 13.1%
Structure (SMILES): O=C(c1ccccc1Cl)n1nc(-c2ccccc2)c(-c2ccccc2)n1 [Compound 67]

inhibition at 10 µM (Table 2): 24.2%
Structure (SMILES): CC(C)(C)C(=O)n1nc(-c2ccc(Cl)cc2Cl)c(-c2ccc(Cl)cc2Cl)n1 [Compound 68]

inhibition at 10 µM (Table 2): 9.9%
Structure (SMILES): COc1ccc(NC(=O)n2nc(-c3ccc(Cl)cc3)c(-c3ccc(Cl)cc3)n2)cc1 [Compound 69]

inhibition at 10 µM (Table 2): 16.2%
Structure (SMILES): O=C(c1ccccc1)n1nc(-c2ccc(Cl)cc2)c(-c2ccc(Cl)cc2)n1 [Compound 70]

inhibition at 10 µM (Table 2): 3.6%
Structure (SMILES): Cc1cc(C)cc(NC(=O)n2nc(-c3ccc(Cl)cc3)c(-c3ccc(Cl)cc3)n2)c1 [Compound 71]

inhibition at 10 µM (Table 2): 23.8%
Structure (SMILES): O=C(NCc1ccccc1)n1nc(-c2ccc(Cl)cc2Cl)c(-c2ccc(Cl)cc2Cl)n1 [Compound 73]

Further lines, the molecule ahead of its results:

Structure (SMILES): CCCCOC(=O)Cn1nnc(-c2ccccc2)c1-c1ccccc1 [Compound 1]
inhibition at 10 µM (Table 1): 40.8%

Structure (SMILES): CCN(CC)C(=O)Cn1nnc(-c2ccccc2)c1-c1ccccc1 [Compound 2]
inhibition at 10 µM (Table 1): 22.6%

Structure (SMILES): O=C(Cn1nnc(-c2ccccc2)c1-c1ccccc1)N1CCCCC1 [Compound 3]
inhibition at 10 µM (Table 1): 26.6%

Structure (SMILES): CCCCOC(=O)Cn1cc(-c2ccccc2)nn1 [Compound 4]
inhibition at 10 µM (Table 1): 9.6%

Structure (SMILES): CC(C)N(C(=O)Cn1nnc(-c2ccccc2)c1-c1ccccc1)C(C)C [Compound 5]
inhibition at 10 µM (Table 1): 18%

Structure (SMILES): CCCCOC(=O)Cn1nnc(-c2ccc(Cl)c(Cl)c2)c1-c1ccc(Cl)c(Cl)c1 [Compound 6]
inhibition at 10 µM (Table 1): 50.5%

Structure (SMILES): C=CCNC(=O)Cn1nnc(-c2ccccc2)c1-c1ccccc1 [Compound 7]
inhibition at 10 µM (Table 1): 15.4%

Structure (SMILES): O=C(Cn1nnc(-c2ccccc2)c1-c1ccccc1)NN1CCCCC1 [Compound 8]
inhibition at 10 µM (Table 1): 12.3%

Structure (SMILES): CNC(=O)Cn1nnc(-c2ccccc2)c1-c1ccccc1 [Compound 9]
inhibition at 10 µM (Table 1): 21.1%

Structure (SMILES): O=C(Cn1nnc(-c2ccc(Cl)c(Cl)c2)c1-c1ccc(Cl)c(Cl)c1)N1CCCCC1 [Compound 10]
inhibition at 10 µM (Table 1): 20.3%

Structure (SMILES): O=C(Cn1nnc(-c2cccc(Cl)c2)c1-c1cccc(Cl)c1)N1CCCCC1 [Compound 11]
inhibition at 10 µM (Table 1): 20.4%

Structure (SMILES): O=C(Cn1nnc(-c2ccc(F)c(Cl)c2)c1-c1ccc(F)c(Cl)c1)N1CCCCC1 [Compound 12]
inhibition at 10 µM (Table 1): 30.7%

Structure (SMILES): CCCCOC(=O)Cn1nncc1-c1ccccc1 [Compound 13]
inhibition at 10 µM (Table 1): 22%

Structure (SMILES): CCCCOC(=O)Cn1nnc(-c2ccc(Cl)cc2)c1-c1ccc(Cl)cc1 [Compound 14]
inhibition at 10 µM (Table 1): 64.1%

Structure (SMILES): O=C(Cn1nnc(-c2ccccc2)c1-c1ccccc1)OCc1ccccc1 [Compound 15]
inhibition at 10 µM (Table 1): 35.4%

Structure (SMILES): O=C(Cn1nnc(-c2ccc(Cl)cc2)c1-c1ccc(Cl)cc1)N1CCCCC1 [Compound 16]
inhibition at 10 µM (Table 1): 33%

Structure (SMILES): O=C(Cn1nnc(-c2cc(Cl)cc(Cl)c2)c1-c1cc(Cl)cc(Cl)c1)N1CCCCC1 [Compound 17]
inhibition at 10 µM (Table 1): 25.9%

Structure (SMILES): O=C(Cn1nnc(-c2cccc(F)c2)c1-c1cccc(F)c1)N1CCCCC1 [Compound 18]
inhibition at 10 µM (Table 1): 19.7%

Structure (SMILES): CCCCOC(=O)Cn1nnc(-c2cccc(Cl)c2)c1-c1cccc(Cl)c1 [Compound 19]
inhibition at 10 µM (Table 1): 36.7%

Structure (SMILES): CCCCCOC(=O)Cn1nnc(-c2ccc(Cl)cc2)c1-c1ccc(Cl)cc1 [Compound 20]
inhibition at 10 µM (Table 1): 51.2%

Structure (SMILES): CCCCOC(=O)Cn1nnc(-c2ccc(F)c(Cl)c2)c1-c1ccc(F)c(Cl)c1 [Compound 21]
inhibition at 10 µM (Table 1): 15.7%

Structure (SMILES): CCCCOC(=O)Cn1nnc(-c2cccc(F)c2)c1-c1cccc(F)c1 [Compound 22]
inhibition at 10 µM (Table 1): 27.1%

Structure (SMILES): CCCCOC(=O)Cn1nnc(-c2cc(Cl)cc(Cl)c2)c1-c1cc(Cl)cc(Cl)c1 [Compound 23]
inhibition at 10 µM (Table 1): 29.9%

Structure (SMILES): CCCCOC(=O)CCn1nnc(-c2ccccc2)c1-c1ccccc1 [Compound 24]
inhibition at 10 µM (Table 1): 31.6%

Structure (SMILES): CCCCCCCOC(=O)Cn1nnc(-c2ccc(Cl)cc2)c1-c1ccc(Cl)cc1 [Compound 25]
inhibition at 10 µM (Table 1): 53.6%

Structure (SMILES): CCCCCCCCOC(=O)Cn1nnc(-c2ccc(Cl)cc2)c1-c1ccc(Cl)cc1 [Compound 26]
inhibition at 10 µM (Table 1): 51.2%

Structure (SMILES): O=C(NCCc1ccccc1)n1nc(-c2ccc(Cl)cc2Cl)c(-c2ccc(Cl)cc2Cl)n1 [Compound 27]
inhibition at 10 µM (Table 1): 46%

Structure (SMILES): CCCCCCOC(=O)Cn1nnc(-c2ccc(Cl)cc2)c1-c1ccc(Cl)cc1 [Compound 28]
inhibition at 10 µM (Table 1): 36.5%

Structure (SMILES): CCCCOC(=O)Cn1nnc(-c2ccccc2)c1-c1ccc(C(=O)OC)cc1 [Compound 29]
inhibition at 10 µM (Table 1): 31.9%

Structure (SMILES): CCCCOC(=O)Cn1nnc(-c2ccc(OC)cc2)c1-c1ccccc1 [Compound 30]
inhibition at 10 µM (Table 1): 40%

Structure (SMILES): CCCCOC(=O)Cn1nnc(-c2ccccc2)c1-c1ccc(C#N)cc1 [Compound 31]
inhibition at 10 µM (Table 1): 18.9%

Structure (SMILES): CCCOC(=O)Cn1nnc(-c2ccc(Cl)cc2)c1-c1ccc(Cl)cc1 [Compound 32]
inhibition at 10 µM (Table 1): 28.3%

Structure (SMILES): CCC(CC)OC(=O)Cn1nnc(-c2ccc(Cl)cc2)c1-c1ccc(Cl)cc1 [Compound 33]
inhibition at 10 µM (Table 1): 24.6%

Structure (SMILES): CCCCOC(=O)Cn1nnc(-c2ccc(OC)cc2)c1-c1ccc(OC)cc1 [Compound 34]
inhibition at 10 µM (Table 1): 45.9%

Structure (SMILES): CCCCOC(=O)Cn1nnc(-c2ccc(C(F)(F)F)cc2)c1-c1ccc(C(F)(F)F)cc1 [Compound 35]
inhibition at 10 µM (Table 1): 46%

Structure (SMILES): CCCCOC(=O)Cn1nnc(-c2ccccc2)c1-c1ccc(Cl)cc1 [Compound 36]
inhibition at 10 µM (Table 1): 35.2%

Structure (SMILES): CCCCOC(=O)Cn1nnc(-c2ccccc2)c1-c1ccc(C)cc1 [Compound 37]
inhibition at 10 µM (Table 1): 26.5%

Structure (SMILES): CCCCN(CCCC)C(=O)Cn1nnc(-c2ccccc2)c1-c1ccccc1 [Compound 38]
inhibition at 10 µM (Table 1): 23.8%

Structure (SMILES): CCCCCCCCN(CCCCCCCC)C(=O)Cn1nnc(-c2ccccc2)c1-c1ccccc1 [Compound 39]
inhibition at 10 µM (Table 1): 4.1%

Structure (SMILES): CCCCOC(=O)Cn1nnc(-c2ccccc2)c1-c1ccc(C(F)(F)F)cc1 [Compound 40]
inhibition at 10 µM (Table 1): 16.3%

Structure (SMILES): CCCCOC(=O)Cn1nnc(-c2ccccc2)c1-c1ccc([N+](=O)[O-])cc1 [Compound 41]
inhibition at 10 µM (Table 1): 14.7%

Structure (SMILES): CCCCOC(=O)Cn1nnc(-c2ccccc2)c1-c1ccsc1 [Compound 42]
inhibition at 10 µM (Table 1): 35.6%

Structure (SMILES): O=C(CCn1nnc(-c2ccccc2)c1-c1ccccc1)N1CCCCC1 [Compound 43]
inhibition at 10 µM (Table 1): 34.4%

Structure (SMILES): CC(C)(C)OC(=O)NNC(=O)Cn1nnc(-c2ccccc2)c1-c1ccccc1 [Compound 44]
inhibition at 10 µM (Table 1): 14.1%

Structure (SMILES): CCCCCCNC(=O)NNC(=O)Cn1nnc(-c2ccc(Cl)cc2)c1-c1ccc(Cl)cc1 [Compound 45]
inhibition at 10 µM (Table 1): 9.8%

Structure (SMILES): CCCCOC(=O)Cn1nnc(-c2ccc(Cl)cc2)c1-c1ccc(Cl)cc1Cl [Compound 46]
inhibition at 10 µM (Table 1): 50.8%

Structure (SMILES): O=C(Cn1nnc(-c2ccc(Cl)cc2Cl)c1-c1ccc(Cl)cc1)N1CCCCC1 [Compound 47]
inhibition at 10 µM (Table 1): 61.8%

Structure (SMILES): CCCCOC(=O)Cn1nnc(-c2ccccc2F)c1-c1ccccc1 [Compound 48]
inhibition at 10 µM (Table 1): 36.1%

Structure (SMILES): CCCCCCCOC(=O)Cn1nnc(-c2ccc(Cl)cc2Cl)c1-c1ccc(Cl)cc1Cl [Compound 59]
inhibition at 10 µM (Table 1): 30.1%
